Laboratory results as given in BindingDB's records for patent US11718589 (Case Western Reserve University, 2023).

molecular target: T1, 15-hydroxyprostaglandin dehydrogenase [NAD(+)] (Homo sapiens, UniProt P15428); assay: In Vitro Assay
T1 sequence (P15428 whole entry): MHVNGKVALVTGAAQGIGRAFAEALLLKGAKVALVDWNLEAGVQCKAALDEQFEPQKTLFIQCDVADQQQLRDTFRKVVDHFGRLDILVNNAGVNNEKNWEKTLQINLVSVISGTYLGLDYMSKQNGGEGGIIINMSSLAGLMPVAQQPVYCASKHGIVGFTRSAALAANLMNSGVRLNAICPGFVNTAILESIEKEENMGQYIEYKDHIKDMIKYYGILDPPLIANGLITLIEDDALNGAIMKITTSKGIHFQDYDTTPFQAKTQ

Row | Compound | IC50 [nM]
1 | COc1ccc(-c2cc(C(F)(F)F)n3nc(C(=O)NCCO)cc3n2)cc1 [US11718589, Compound 12a] | > 2500
2 | CCCCS(=O)(=O)c1cc2nc(-c3ccc(OC)cc3)cc(C(F)(F)F)n2n1 [US11718589, Compound 4a] | > 2500
3 | CCCC[S+]([O-])c1cc2nc(-c3ccc(OC)cc3)cc(-c3ccccc3)n2n1 (stereo unspecified) [US11718589, Compound 5a] | 39
4 | CCCC[S+]([O-])c1cc2nc(-c3ccc(OC)cc3)cc(-c3ccc(F)cc3)n2n1 (stereo unspecified) [US11718589, Compound 6a] | 59
5 | CCCC[S+]([O-])c1cc2nc(-c3ccc(OC)cc3)cc(C(F)(F)F)n2n1 (stereo unspecified) [US11718589, Compound 3a] | 35.5
6 | CCNC(=O)c1cc2nc(-c3ccc(OC)cc3)cc(C(F)(F)F)n2n1 [US11718589, Compound 7a] | > 2500
